Measurements: ChEMBL document CHEMBL1149107, “Structure-activity relationships of potent, selective inhibitors of neuronal nitric oxide synthase based on the 6-phenyl-2-aminopyridine structure” (J Med Chem, 2004)

Legend:
Nitric oxide synthase 1 [1] = target: Nitric oxide synthase 1 (Rattus norvegicus, UniProt P29476); assay: In vitro inhibition of rat neuronal nitric oxide synthase
[2] = target: Nitric oxide synthase, inducible (Homo sapiens, UniProt P35228); assay: In vitro inhibition of human inducible nitric oxide synthase
Nitric oxide synthase 3 = target: T1, Nitric oxide synthase 3 (Homo sapiens, UniProt P29474); assay: In vitro inhibition of human endothelial nitric oxide synthase
T1 sequence (P29474 whole entry): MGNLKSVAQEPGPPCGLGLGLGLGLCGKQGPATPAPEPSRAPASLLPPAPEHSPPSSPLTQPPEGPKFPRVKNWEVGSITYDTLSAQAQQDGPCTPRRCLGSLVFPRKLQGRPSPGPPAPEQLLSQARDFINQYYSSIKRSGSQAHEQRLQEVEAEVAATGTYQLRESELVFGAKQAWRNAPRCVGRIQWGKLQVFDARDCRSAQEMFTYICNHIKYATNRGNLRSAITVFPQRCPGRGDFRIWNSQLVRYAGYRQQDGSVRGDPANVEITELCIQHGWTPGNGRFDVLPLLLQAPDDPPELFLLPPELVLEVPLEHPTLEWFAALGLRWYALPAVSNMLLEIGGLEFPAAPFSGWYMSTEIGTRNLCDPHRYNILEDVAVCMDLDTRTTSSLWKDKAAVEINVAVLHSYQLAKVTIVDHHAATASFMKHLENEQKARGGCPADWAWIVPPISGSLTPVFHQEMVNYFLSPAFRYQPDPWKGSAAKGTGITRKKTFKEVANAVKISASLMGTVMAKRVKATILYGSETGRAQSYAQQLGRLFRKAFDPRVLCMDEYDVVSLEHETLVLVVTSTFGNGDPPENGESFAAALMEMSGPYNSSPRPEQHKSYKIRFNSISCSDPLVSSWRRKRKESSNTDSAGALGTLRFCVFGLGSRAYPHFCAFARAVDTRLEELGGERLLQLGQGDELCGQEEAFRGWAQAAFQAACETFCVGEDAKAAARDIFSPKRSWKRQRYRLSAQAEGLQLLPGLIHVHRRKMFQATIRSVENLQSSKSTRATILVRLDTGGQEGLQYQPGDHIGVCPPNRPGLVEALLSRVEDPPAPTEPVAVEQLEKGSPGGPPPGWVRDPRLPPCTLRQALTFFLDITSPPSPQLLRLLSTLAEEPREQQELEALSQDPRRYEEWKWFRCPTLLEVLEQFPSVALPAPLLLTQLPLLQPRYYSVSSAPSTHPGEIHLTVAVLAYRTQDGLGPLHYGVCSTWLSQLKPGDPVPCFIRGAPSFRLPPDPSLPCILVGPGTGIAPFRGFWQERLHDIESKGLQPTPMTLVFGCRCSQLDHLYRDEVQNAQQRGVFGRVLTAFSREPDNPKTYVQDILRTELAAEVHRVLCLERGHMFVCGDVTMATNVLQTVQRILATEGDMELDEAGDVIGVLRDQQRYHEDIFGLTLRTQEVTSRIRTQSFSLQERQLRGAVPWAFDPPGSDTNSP

Nitric oxide synthase 1 [3] = target: Nitric oxide synthase 1 (Homo sapiens, UniProt P29475); assay: In vitro inhibition of human neuronal nitric oxide synthase
Sequence of Nitric oxide synthase 1 (Homo sapiens, UniProt P29475) (P29475 whole entry): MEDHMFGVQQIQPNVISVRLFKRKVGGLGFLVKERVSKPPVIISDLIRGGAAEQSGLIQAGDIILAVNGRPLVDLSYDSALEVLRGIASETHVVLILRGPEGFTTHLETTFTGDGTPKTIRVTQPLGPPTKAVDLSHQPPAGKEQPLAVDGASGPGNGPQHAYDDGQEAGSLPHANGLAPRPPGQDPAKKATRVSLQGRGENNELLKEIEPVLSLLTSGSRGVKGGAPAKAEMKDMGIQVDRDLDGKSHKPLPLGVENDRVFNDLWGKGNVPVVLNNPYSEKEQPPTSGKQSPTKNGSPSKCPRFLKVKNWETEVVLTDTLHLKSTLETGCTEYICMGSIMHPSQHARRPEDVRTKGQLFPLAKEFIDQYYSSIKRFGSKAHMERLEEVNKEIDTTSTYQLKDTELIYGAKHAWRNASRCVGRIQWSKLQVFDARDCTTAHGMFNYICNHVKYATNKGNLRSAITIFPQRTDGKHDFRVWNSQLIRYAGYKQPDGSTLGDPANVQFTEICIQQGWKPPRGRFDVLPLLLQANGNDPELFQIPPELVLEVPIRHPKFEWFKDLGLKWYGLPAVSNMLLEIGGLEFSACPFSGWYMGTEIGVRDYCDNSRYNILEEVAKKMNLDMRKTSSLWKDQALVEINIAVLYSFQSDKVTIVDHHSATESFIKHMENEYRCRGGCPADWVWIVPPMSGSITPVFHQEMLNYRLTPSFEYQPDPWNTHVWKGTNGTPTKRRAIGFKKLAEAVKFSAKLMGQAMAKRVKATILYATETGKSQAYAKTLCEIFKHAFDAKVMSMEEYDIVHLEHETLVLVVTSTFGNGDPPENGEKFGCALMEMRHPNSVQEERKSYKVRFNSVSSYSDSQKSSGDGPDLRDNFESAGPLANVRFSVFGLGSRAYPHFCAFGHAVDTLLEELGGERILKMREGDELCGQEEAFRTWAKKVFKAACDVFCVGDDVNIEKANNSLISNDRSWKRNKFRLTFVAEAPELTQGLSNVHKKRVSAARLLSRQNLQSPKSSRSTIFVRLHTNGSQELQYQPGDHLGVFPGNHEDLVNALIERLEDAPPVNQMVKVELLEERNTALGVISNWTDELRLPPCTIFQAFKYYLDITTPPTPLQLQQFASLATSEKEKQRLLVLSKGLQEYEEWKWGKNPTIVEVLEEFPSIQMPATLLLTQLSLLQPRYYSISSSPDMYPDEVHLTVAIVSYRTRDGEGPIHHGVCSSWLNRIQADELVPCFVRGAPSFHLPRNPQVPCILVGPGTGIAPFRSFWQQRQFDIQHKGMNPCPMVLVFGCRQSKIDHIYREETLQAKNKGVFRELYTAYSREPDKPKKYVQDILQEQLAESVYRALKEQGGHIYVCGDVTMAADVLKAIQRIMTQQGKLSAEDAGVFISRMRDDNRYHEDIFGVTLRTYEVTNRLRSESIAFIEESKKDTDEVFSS

Sequence of Nitric oxide synthase, inducible (P35228 whole entry): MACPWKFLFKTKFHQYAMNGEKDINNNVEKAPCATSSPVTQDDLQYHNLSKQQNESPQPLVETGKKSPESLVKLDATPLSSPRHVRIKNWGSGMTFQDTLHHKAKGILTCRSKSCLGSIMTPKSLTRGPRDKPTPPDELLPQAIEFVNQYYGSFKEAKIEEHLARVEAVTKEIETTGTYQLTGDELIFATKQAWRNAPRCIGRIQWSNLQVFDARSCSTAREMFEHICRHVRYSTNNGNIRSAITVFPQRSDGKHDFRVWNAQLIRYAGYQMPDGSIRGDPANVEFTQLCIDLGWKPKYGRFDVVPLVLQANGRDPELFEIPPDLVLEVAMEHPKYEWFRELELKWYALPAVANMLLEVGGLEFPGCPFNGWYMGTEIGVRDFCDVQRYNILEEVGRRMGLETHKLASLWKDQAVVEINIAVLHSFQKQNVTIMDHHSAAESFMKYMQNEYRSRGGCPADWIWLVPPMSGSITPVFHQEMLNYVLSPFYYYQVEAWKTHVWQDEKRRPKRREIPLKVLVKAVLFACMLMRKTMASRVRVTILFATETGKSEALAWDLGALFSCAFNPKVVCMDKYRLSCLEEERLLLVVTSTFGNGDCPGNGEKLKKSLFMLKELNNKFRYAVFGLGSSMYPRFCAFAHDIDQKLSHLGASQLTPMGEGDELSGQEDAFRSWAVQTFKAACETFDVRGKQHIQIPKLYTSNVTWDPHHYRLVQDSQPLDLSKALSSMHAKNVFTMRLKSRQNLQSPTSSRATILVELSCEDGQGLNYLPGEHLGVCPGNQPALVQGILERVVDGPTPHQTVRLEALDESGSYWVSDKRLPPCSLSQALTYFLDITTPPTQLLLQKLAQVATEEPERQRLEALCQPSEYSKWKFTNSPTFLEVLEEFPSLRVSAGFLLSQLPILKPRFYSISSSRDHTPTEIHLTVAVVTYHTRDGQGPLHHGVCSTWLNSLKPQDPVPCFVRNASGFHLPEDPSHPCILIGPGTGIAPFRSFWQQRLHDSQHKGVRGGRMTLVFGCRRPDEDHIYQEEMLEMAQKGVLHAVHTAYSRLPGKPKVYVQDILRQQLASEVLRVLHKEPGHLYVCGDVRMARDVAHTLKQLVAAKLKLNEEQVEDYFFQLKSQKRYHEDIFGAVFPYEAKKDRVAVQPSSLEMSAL
Sequence of Nitric oxide synthase 1 (Rattus norvegicus, UniProt P29476) (P29476 whole entry): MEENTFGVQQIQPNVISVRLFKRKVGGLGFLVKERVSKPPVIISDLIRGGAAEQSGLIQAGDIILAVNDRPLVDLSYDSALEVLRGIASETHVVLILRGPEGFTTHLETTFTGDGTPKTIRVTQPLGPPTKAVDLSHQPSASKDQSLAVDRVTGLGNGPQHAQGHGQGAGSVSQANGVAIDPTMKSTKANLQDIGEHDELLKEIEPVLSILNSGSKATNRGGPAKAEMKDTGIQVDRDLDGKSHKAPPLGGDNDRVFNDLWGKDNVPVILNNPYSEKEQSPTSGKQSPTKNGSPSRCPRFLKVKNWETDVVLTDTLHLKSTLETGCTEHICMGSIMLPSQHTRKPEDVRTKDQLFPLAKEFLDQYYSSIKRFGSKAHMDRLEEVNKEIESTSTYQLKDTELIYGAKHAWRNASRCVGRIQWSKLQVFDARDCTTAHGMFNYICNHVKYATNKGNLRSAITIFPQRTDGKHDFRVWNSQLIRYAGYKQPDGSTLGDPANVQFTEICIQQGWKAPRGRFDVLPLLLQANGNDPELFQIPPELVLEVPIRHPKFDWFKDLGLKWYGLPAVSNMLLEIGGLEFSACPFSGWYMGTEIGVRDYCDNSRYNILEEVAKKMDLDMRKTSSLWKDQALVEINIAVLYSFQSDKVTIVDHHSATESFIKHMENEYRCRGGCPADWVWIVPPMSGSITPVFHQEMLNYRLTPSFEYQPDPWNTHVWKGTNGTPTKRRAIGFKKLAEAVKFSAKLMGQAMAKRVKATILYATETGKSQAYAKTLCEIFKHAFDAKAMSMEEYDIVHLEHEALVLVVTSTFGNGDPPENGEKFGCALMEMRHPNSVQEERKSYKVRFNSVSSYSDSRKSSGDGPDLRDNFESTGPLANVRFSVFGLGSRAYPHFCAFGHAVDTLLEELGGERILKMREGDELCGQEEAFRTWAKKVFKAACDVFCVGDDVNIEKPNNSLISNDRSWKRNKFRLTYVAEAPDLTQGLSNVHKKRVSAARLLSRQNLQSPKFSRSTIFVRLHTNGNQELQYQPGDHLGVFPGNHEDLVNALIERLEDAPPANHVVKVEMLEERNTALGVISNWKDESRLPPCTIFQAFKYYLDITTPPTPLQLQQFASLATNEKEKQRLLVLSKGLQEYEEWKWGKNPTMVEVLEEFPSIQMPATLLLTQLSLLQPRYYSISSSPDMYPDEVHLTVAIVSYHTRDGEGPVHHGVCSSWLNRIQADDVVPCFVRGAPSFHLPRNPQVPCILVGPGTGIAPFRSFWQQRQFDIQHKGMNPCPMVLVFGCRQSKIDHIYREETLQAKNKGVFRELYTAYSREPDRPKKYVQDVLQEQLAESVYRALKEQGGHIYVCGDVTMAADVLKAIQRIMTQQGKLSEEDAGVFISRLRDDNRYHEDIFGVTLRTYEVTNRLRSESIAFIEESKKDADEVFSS

Row | SMILES | IC50 (Nitric oxide synthase 1 [1]) | IC50 [2] | IC50 (Nitric oxide synthase 3) | IC50 (Nitric oxide synthase 1 [3])
1 | Nc1cccc(-c2ccc(OCC3CC4CCN3CC4)c3ccccc23)n1 (stereo unspecified) | 0.088 µM | 5.8 µM | 3.77 µM | 0.0963 µM
2 | CN(C)CCOc1ccc(-c2cccc(N)n2)c2c1CCCCC2 | 0.093 µM | 2.1 µM | 5.75 µM | 0.109 µM
3 | CN1CCN(CCOc2ccc(-c3cccc(N)n3)c3c2CCCC3)CC1 | 0.0992 µM | 1.28 µM | 10.6 µM | 0.121 µM
4 | Nc1cccc(-c2ccc(OCCN3CCCC3)c3ccccc23)n1 | 0.175 µM | 1.77 µM | 3.71 µM | 0.25 µM
5 | CN(C)CCOc1ccc(-c2cccc(N)n2)c2c1CCCC2 | 0.034 µM | 0.517 µM | 3.53 µM | 0.0709 µM
6 | Nc1cccc(-c2ccc(OCCN3CCCC3)c3c2CCC3)n1 | 0.059 µM | 0.45 µM | 0.785 µM | 0.117 µM
7 | CN(C)CCOc1ccc(-c2cccc(N)n2)c2c1C1CCC2C1 (stereo unspecified) | 0.185 µM | 1.08 µM | 19 µM | 0.12 µM
8 | CN(C)CCOc1ccc(-c2cccc(N)n2)c2ccccc12 | 0.167 µM | 4.6 µM | 5.79 µM | 0.22 µM
9 | Nc1cccc(-c2ccc(OCCN3CCCC3)c3c2CCCC3)n1 | 0.08 µM | 0.358 µM | 2.21 µM | 0.141 µM
10 | CN1CCN(CCOc2ccc(-c3cccc(N)n3)c3ccccc23)CC1 | 0.306 µM | 9.38 µM | 12 µM | 0.39 µM
11 | CN(C)C1CCN(CCOc2ccc(-c3cccc(N)n3)c3ccccc23)CC1 | 0.195 µM | 5.75 µM | 7.02 µM | 0.203 µM
12 | CN1CCN(CCOc2ccc(-c3cccc(N)n3)c3c2CCC3)CC1 | 0.082 µM | 2.2 µM | 3.03 µM | 0.123 µM
13 | CN(C)CCOc1ccc(-c2cccc(N)n2)c2c1CCC2 | 0.0218 µM | 0.592 µM | 1.57 µM | 0.0506 µM
14 | O=[N+]([O-])c1cccc2cn[nH]c12 [7-NITROINDAZOLE] |  |  |  | 2.5 µM
15 | CN1CCCC1COc1ccc(-c2cccc(N)n2)c2ccccc12 (stereo unspecified) | 0.0805 µM | 2.85 µM | 2.93 µM | 0.112 µM
16 | CN(C)C1CCCCC1Oc1ccc(-c2cccc(N)n2)c2ccccc12 (stereo unspecified) | 0.14 µM | 2.37 µM | 13 µM | 0.161 µM
17 | CN1CCC(Oc2ccc(-c3cccc(N)n3)c3ccccc23)C1 (stereo unspecified) | 0.048 µM | 2.07 µM | 13 µM | 0.0703 µM
18 | Cc1ccnc(N)c1 | 0.04 µM |  |  | 
